Assay results taken from patent publication US20240301319A1, “PERFUMING COMPOSITIONS” (FIRMNICH SA, priority 2017, published 2024).
Counter-ions that a name gives are not always drawn.

Columns and labels:
[1] = Volatility of perfuming compounds (Tables 4 to 10), with top/middle/bottom note type; assay type: physicochemical
Summary of the method: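 Volatility is expressed in μg/l in air. Top notes are 70,000 to 100 μg/l, middle notes 99 to 50 μg/l, and bottom notes 49 to 0.1 μg/l. Compounds are grouped by olfactive family: watery, green, fruity, citrus, sweet, gourmand and woody.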

[2] = Odor threshold and odor value of perfuming compounds (Tables 4 to 10)
[3] = Table 6, perfuming compounds having a fruity note
[4] = Table 6, perfuming compounds having a fruity note, note type by volatility
[5] = Table 7, citrus note, top, middle or bottom note
[6] = note type (Top/Middle/Bottom) by volatility, perfuming compounds having a green note
[7] = perfuming compounds having a green note
[8] = Table 7, citrus note, equals volatility divided by odor threshold
[9] = Table 8, perfuming compounds having a sweet note
[10] = Table 8, perfuming compounds having a sweet note, note type by volatility
[11] = Table 9, perfuming compounds having a gourmand note, note type by volatility
[12] = Table 10, perfuming compounds having a woody note, note type by volatility

Row | Compound | Volatility [1, 3] [μg/l air] | Type [1, 4] | Volatility [1, 9] [μg/l air] | Type [1, 10] | Volatility ([1]; Table 9, gourmand note) [μg/l air] | Type [1, 11] | Odor Threshold [2, 3] [μg/l air] | Odor Value [2, 3] | Odor Threshold [2, 9] [μg/l air] | Odor Value [2, 9] | Odor Threshold ([2]; Table 9, gourmand note) [μg/l air] | further results
1 | O=COCCc1ccccc1 [2-PHENYLETHYL FORMATE] | 567.67 | TOP (perfuming compounds having a volatility ranging from 70,000 to 100 μg/l in air are referred to as “top notes”) |  |  |  |  |  |  |  |  |  | Volatility (μg/l air) ([1]; Table 7, citrus note): 567.67 μg/l air; Type [1, 5]: Top; Type [1, 6]: Top; Volatility (μg/l air) [1, 7]: 567.67 μg/l air; Odor Threshold (μg/l air) ([2]; Table 7, citrus note): 8.34E−04 μg/l air; Odor Value [2, 8]: 6.81E+05; Odor Threshold (μg/l air) [2, 7]: 8.34E−04 μg/l air
2 | CC(C)C(=O)OCCc1ccccc1 [2-PHENYLETHYL ISOBUTYRATE] | 67.38 | Middle | 67.38 | Middle | 67.38 | Middle | 6.70E−03 | 1.01E+04 | 6.70E−03 | 1.01E+04 | 6.70E−03 | 
3 | O=C(Cc1ccccc1)OCCc1ccccc1 [2-PHENYLETHYL PHENYLACETATE] | 0.20 | Bottom | 0.20 | Bottom | 0.20 | Bottom | 9.08E−04 | 2.24E+02 | 9.08E−04 | 2.24E+02 | 9.08E−04 | Volatility (μg/l air) ([1]; Table 7, citrus note): 0.20 μg/l air; Type [1, 5]: Bottom; Odor Threshold (μg/l air) ([2]; Table 7, citrus note): 9.08E−04 μg/l air; Odor Value [2, 8]: 2.24E+02
4 | CC(C)(C)C(=O)OCCc1ccccc1 [2-PHENYLETHYL PIVALATE] | 71.44 | Middle | 71.44 | Middle | 71.44 | Middle | 3.85E−02 | 1.86E+03 | 3.85E−02 | 1.86E+03 | 3.85E−02 | 
5 | COc1ccc(OC)c(C(C)(C)C)c1 [2-TERT-BUTYL-1,4-DIMETHOXYBENZENE] |  |  |  |  |  |  |  |  |  |  |  | Type [1, 12]: Middle; Volatility ([1]; Table 10, woody note): 82.95 μg/l air; Odor Threshold ([2]; Table 10, woody note): 1.65E−02 μg/l air
6 | C/C=C/c1ccc(O)c(OC)c1 [2-methoxy-4-[(1E)-1-propen-1-yl]phenol] |  |  | 11.28 | Bottom | 11.28 | Bottom |  |  | 6.63E−06 | 1.70E+06 | 6.63E−06 | 
7 | CC(C)C(=O)OCCOc1ccccc1 [2-phenoxyethyl 2-methylpropanoate] | 10.05 | Bottom |  |  |  |  | 3.01E−02 | 3.34E+02 |  |  |  | Type [1, 6]: Bottom; Volatility (μg/l air) [1, 7]: 10.05 μg/l air; Odor Threshold (μg/l air) [2, 7]: 3.01E−02 μg/l air
8 | CC(=O)OCCC(C)CCC=C(C)C (stereo not shown) [3,7-DIMETHYL-6-OCTENYL ACETATE] | 128.72 | TOP (perfuming compounds having a volatility ranging from 70,000 to 100 μg/l in air are referred to as “top notes”) |  |  |  |  | 2.75E−02 | 4.68E+03 |  |  |  | 
9 | Cc1occc(=O)c1O [3-HYDROXY-2-METHYL-4(4H)-PYRANONE] | 92.42 | Middle | 92.42 | Middle |  |  | 4.17E−04 | 2.22E+05 | 4.17E−04 | 2.22E+05 |  | 
10 | CC(C)CCOCCc1ccccc1 [3-METHYLBUTYL 2-PHENYLETHYL ETHER] | 110.11 | TOP (perfuming compounds having a volatility ranging from 70,000 to 100 μg/l in air are referred to as “top notes”) | 110.11 | Top | 110.11 | Top | 1.38E−02 | 7.96E+03 | 1.38E−02 | 7.96E+03 | 1.38E−02 | 
11 | CC(=O)OCC=C(C)C [3-methyl-2-buten-1-yl acetate] | 27705.98 | TOP (perfuming compounds having a volatility ranging from 70,000 to 100 μg/l in air are referred to as “top notes”) |  |  |  |  |  |  |  |  |  | Type [1, 6]: Top; Volatility (μg/l air) [1, 7]: 27705.98 μg/l air; Odor Threshold (μg/l air) [2, 7]: 5.58E−02 μg/l air
12 | CC(C)(C)C1CCC(=O)CC1 [4-(2-methyl-2-propanyl)cyclohexanone] |  |  |  |  |  |  |  |  |  |  |  | Type [1, 12]: Top; Volatility ([1]; Table 10, woody note): 755.28 μg/l air; Odor Threshold ([2]; Table 10, woody note): 1.15E−01 μg/l air
13 | CC(C)(O)CCC1CCCCC1 [4-CYCLOHEXYL-2-METHYL-2-BUTANOL] | 79.34 | Middle |  |  |  |  | 2.83E−02 | 2.81E+03 |  |  |  | Volatility (μg/l air) ([1]; Table 7, citrus note): 79.34 μg/l air; Type [1, 5]: Middle; Odor Threshold (μg/l air) ([2]; Table 7, citrus note): 2.83E−02 μg/l air; Odor Value [2, 8]: 2.81E+03
14 | COc1ccc(COC(C)=O)cc1 [4-METHOXYBENZYL ACETATE] | 17.59 | Bottom |  |  |  |  | 9.24E−05 | 1.90E+05 |  |  |  | 
15 | COc1cc(C=O)ccc1O [4-hydroxy-3-methoxybenzaldehyde] |  |  | 4.24 | Bottom | 4.24 | Bottom |  |  | 6.75E−06 | 6.28E+05 | 6.75E−06 | 
16 | CC(=O)OC1CCC2C(C)(C)CCCC2(C)C1 (stereo not shown) [5,5,8a-trimethyldecahydro-2-naphthalenyl acetate] |  |  |  |  |  |  |  |  |  |  |  | Type [1, 12]: Bottom; Volatility ([1]; Table 10, woody note): 14.41 μg/l air; Odor Threshold ([2]; Table 10, woody note): 4.19E−04 μg/l air
17 | CC=CC(=O)C(C)CC (stereo not shown) [5-METHYL-2-HEPTEN-4-ONE] |  |  | 5525.83 | Top |  |  |  |  | 7.62E−07 | 7.26E+09 |  | 
18 | CCC(CC(C)CC)=NO (stereo not shown) [5-METHYL-3-HEPTANONE OXIME] | 128.04 | TOP (perfuming compounds having a volatility ranging from 70,000 to 100 μg/l in air are referred to as “top notes”) | 128.04 | Top |  |  | 8.80E−03 | 1.45E+04 | 8.80E−03 | 1.45E+04 |  | Type [1, 6]: Top; Volatility (μg/l air) [1, 7]: 128.04 μg/l air; Odor Threshold (μg/l air) [2, 7]: 8.80E−03 μg/l air
19 | CCC(CC(C)CC)=NO (stereo not shown) [5-METHYL-3-HEPTANONEOXIME] |  |  |  |  | 128.04 | Top |  |  |  |  | 8.80E−03 | 
20 | CCCCC1CCCC(=O)O1 (stereo not shown) [5-NONANOLIDE] | 23.87 | Bottom | 23.87 | Bottom | 23.87 | Bottom | 1.16E−05 | 2.06E+06 | 1.16E−05 | 2.06E+06 | 1.16E−05 | 
